Results reported in article PMC11981937 (Nature, 2025).
“And” between values parts separate entries of the source, which are not always exact repeats. Equal entries are not always repeated. Where two headings read alike, the source gives them in different places.

Columns and labels:
[1] = tested on: SARS-CoV-2 (USA-WA1/2020); design: species or system Syrian golden hamster; settings: hamster, in vivo
Huh7 cells = settings: human
[2] = female, Syrian golden, hamster, in vivo, po
in vivo [3] = settings: Syrian golden, hamster; for concentration at 0.05 h / concentration at 1 h / concentration at 2 h / concentration at 4 h / concentration at 7 h / concentration at 24 h / concentration at 12 h / concentration at 0.5 h: female
in vivo [4] = settings: dog
in vitro = settings: rhesus monkey
[5] = po, 50 mg/kg, individual animal

## C[C@H]1Cn2ncc(C(=O)Nc3cccc(C#N)c3)c2C(=O)N1c1ccc(C(F)(F)c2ccccc2)cc1 [JNJ-9676, (S)-N-(3-cyanophenyl)-5-(4-(difluoro(phenyl)methyl)phenyl)-6-methyl-4-oxo-4,5,6,7-tetrahydropyrazolo[1,5-a]pyrazine-3-carboxamide]
[1]
  Infectious SARS-CoV2 virus in the lung, Log10, Avg: 3.732 Log10 PFU/g Lung and 3.479 Log10 PFU/g Lung
Huh7 cells
  CC50: > 30 µM
[2]; 5 mg/kg, 12 h
  Concentration, individual animal: 153 ng/mL
[2]; 50 mg/kg, 1 h
  Concentration, individual animal: 908 ng/mL
In vivo [3]
  Vd: 7.9 L/kg
  clearance: 9 mL/min/kg
  half-life: 13 h
In vivo [3]; po
  bioavailability: > 50%
In vivo [3]; iv, 1 mg/kg, average
  concentration at 0.05 h: 555 ng/mL
  concentration at 1 h: 240 ng/mL
  concentration at 2 h: 186 ng/mL
  concentration at 4 h: 83.8 ng/mL
  concentration at 7 h: 47.7 ng/mL
  concentration at 24 h: 19.2 ng/mL
In vivo [3]; iv, 1 mg/kg, average, female hamster, IV 1 mg/kg, 12 h, n=3
  concentration at 12 h: 25.1 ng/mL
In vivo [3]; iv, 1 mg/kg, individual animal
  concentration at 0.05 h: 558 ng/mL
  concentration at 1 h: 268 ng/mL
  concentration at 2 h: 170 ng/mL
  concentration at 4 h: 75.9 ng/mL
  concentration at 7 h: 45.4 ng/mL
  concentration at 12 h: 26.7 ng/mL
  concentration at 24 h: 20.1 ng/mL
In vivo [3]; po, 5 mg/kg, average
  concentration at 0.5 h: 68.1 ng/mL
  concentration at 1 h: 114 ng/mL
  concentration at 2 h: 220 ng/mL
  concentration at 4 h: 264 ng/mL
  concentration at 7 h: 176 ng/mL
  concentration at 12 h: 129 ng/mL
  concentration at 24 h: 82.6 ng/mL
In vivo [3]; po, 5 mg/kg, individual animal
  concentration at 0.5 h: 71 ng/mL
  concentration at 1 h: 95.4 ng/mL
  concentration at 2 h: 230 ng/mL
  concentration at 7 h: 142 ng/mL
  concentration at 12 h: 89.2 ng/mL
In vivo [3]; po, 5 mg/kg, individual animal, female hamster, PO 5mg/kg, 12 h
  concentration at 12 h: 145 ng/mL
In vivo [3]; po, 50 mg/kg, average
  concentration at 0.5 h: 801 ng/mL
  concentration at 1 h: 1060 ng/mL
  concentration at 4 h: 2430 ng/mL
  concentration at 7 h: 2080 ng/mL
  concentration at 24 h: 655 ng/mL
In vivo [3]; po, 50 mg/kg, average, female hamster, PO 50mg/kg, 2 h, n=3
  concentration at 2 h: 1760 ng/mL
In vivo [3]; po, 50 mg/kg, average, female hamster, PO 50mg/kg, 12 h, n=3
  concentration at 12 h: 1200 ng/mL
In vivo [3]; [5]
  concentration at 0.5 h: 680 ng/mL
  concentration at 1 h: 829 ng/mL
  concentration at 2 h: 1580 ng/mL
  concentration at 4 h: 2230 ng/mL
  concentration at 7 h: 1510 ng/mL
In vivo [3]; po, 50 mg/kg, individual animal, female hamster, PO 50mg/kg, 1 h
  concentration at 1 h: 1450 ng/mL
In vivo [4]
  Vd: 8.2 L/kg
  clearance: < 1.5 mL/min/kg
  half-life: > 40 h
In vivo [4]; po
  bioavailability: > 80%
In vitro
  CC50 at 6 days: > 20 µM
